Assay results published in patent publication US12384769B2, “Heteroaryl-substituted aminoalkyl azole compounds as pesticides” (Elanco Animal Health GmbH, priority 2019, dated 2025).

Tests used:
Type in all cases: in vivo
Rhipicephalus sanguineus = Rhipicephalus sanguineus in-vitro contact test, adult brown dog ticks (RHIPSA Contact); settings: 5 μg/cm^2 (=500 g/ha), after 48 hours, read-out: activity (efficacy, ticks dead or moribund)
How it was run: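 Acetone solution coated onto glass tube walls; 900 ppm gives 5 μg/cm^2. After drying, 5-10 adult ticks per tube kept at room temperature for 48 h, then placed on a 45-50° C heating plate up to 5 min; ticks unable to climb away counted dead or moribund, efficacy as % affected.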

Boophilus microplus = Boophilus microplus injection test (BOOPMI Injection); settings: Rhipicephalus microplus, 168 h, injection into adult engorged female ticks, egg deposition after 7 days, read-out: activity (efficacy, infertile eggs)
How it was run: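 Adult engorged female ticks (5 per group) injected into the abdomen with 1 μL compound in DMSO, then held in a climate chamber. Fertile egg deposition scored after 7 days, with unclear eggs kept until hatching (~42 days). Efficacy 100% = all eggs infertile, 0% = all fertile.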

Spodoptera frugiperda = Spodoptera frugiperda spray test; settings: in Zea mays, 168 h, read-out: activity (mortality)
How it was run: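 Larvae of fall armyworm placed on dried maize leaf sections previously sprayed with emulsified compound (acetone/DMF solvent, water with 1000 ppm emulsifier). Percent of caterpillars killed recorded on day 7, 0–100% scale.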

Ctenocephalides felis = Ctenocephalides felis oral test (CTECFE); settings: 48 h, 100 ppm in cattle blood, after 2 days
How it was run: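 About 20 adult unfed fleas fed through parafilm on cattle blood held at 37° C and dosed with compound from a DMSO concentrate; flea chamber at room temperature. Percent mortality scored after 2 days.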

[1] = test system: Rhipicephalus microplus (strain Parkhurst, resistant against synthetic pyrethroids); test: Rhipicephalus microplus in-vitro contact test, larval cattle tick (BOOPMI Contact); settings: 5 μg/cm^2 (=500 g/ha), after 48 hours, read-out: activity (efficacy, larvae dead or moribund)
How it was run: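 Efficacy, expressed as percentage of larvae dead or moribund, is judged by negative geotactic behaviour 48 h after larvae (20-50 per tube) enter tubes whose inner walls carry a dried acetone film of compound, 5 μg/cm² at 900 ppm. Incubation: horizontal, 27 °C, 85% relative humidity.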

Diabrotica balteata = Diabrotica balteata spray test; settings: 168 h, 500 g/ha (=160 μg/well), wheat seeds, after 7 days, read-out: activity (efficacy, seedlings grown)
How it was run: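 Efficacy was read 7 days after infesting each unit with 10–20 banded cucumber beetle larvae, as % of seedlings growing like untreated, uninfested controls. Before infestation, wheat seeds germinated 1 day on agar (5 per well) were sprayed with the active ingredient. The active was formulated in acetone/DMF and diluted in water containing emulsifier.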

[2] = test system: Culex quinquefasciatus strain P00; test: Culex quinquefasciatus test (CULXFA surface treatment & contact assay); settings: 30 minutes exposure, 24 hours after contact, read-out: efficacy (mortality)
Description: Culex quinquefasciatus Test (CULXFA Surface Treatment & Contact Assay)
Solvent: Aceton+2000 ppm rapeseed oil methyl ester (RME)
In order to produce a sufficient, active ingredient containing solution it is necessary to solve the test compound in the solvent-mix (acetone at 2 mg/mL/RME 2 000 ppm). This solution is pipetted onto a glazed tile and after evaporation of the acetone, adult mosquitoes of the species Culex quinquefasciatus strain P00 are placed onto the dried surface. The exposure time is 30 minutes.
Mortality in percent (%) is determined 24 hours after contact of the insects to the treated surface. 100% mortality means that all tested insects are dead, whereas 0% means that no insect died.

Myzus persicae = Myzus persicae oral test; settings: 120 h, after 5 days
Description: Solvent: 100 parts by weight acetone
Afterwards the plates are sealed with parafilm through which a mixed population of the green peach aphid (Myzus persicae) can suck on the compound preparation.
After 5 days mortality in % is determined. 100% means all aphids have been killed and 0% means none of the aphids have been killed.

Q: Which results are given for C[C@H](Nc1nc2cc(C(F)(F)F)c(Cl)cc2o1)c1ncnn1-c1ncccn1 [Example I-001, 6-chloro-N-{(1S)-1-[1-(pyrimidin-2-yl)-1H-1,2,4-triazol-5-yl]ethyl}-5-(trifluoromethyl)-1,3-benzoxazol-2-amine]?
A: pest or weed control at 5 µg/cm2, 5 µg/cm2 (Rhipicephalus sanguineus): 100%; pest or weed control at 0.004 mg (Boophilus microplus; 4 μg/animal): 100%; pest or weed control at 0.02 mg (Boophilus microplus; 20 μg/animal): 100%; mortality at 100 g/ha (Spodoptera frugiperda): 100%; mortality at 500 g/ha (Spodoptera frugiperda): 100%; mortality at 100 ppm (Ctenocephalides felis): 100%; pest or weed control at 5 µg/cm2 [1]: 100%; pest or weed control at 160 µg/disc, 500 g/ha (Diabrotica balteata): 100%; mortality at 4 mg/m2 ([2]; surface concentration 4 mg/m^2, glazed tile): 90 to 100%; mortality at 20 mg/m2 ([2]; surface concentration 20 mg/m^2, glazed tile): 90 to 100%; mortality at 4 ppm (Myzus persicae): 100%
